Like-named read-outs stand apart in the source and are kept apart here.

A short description of data set [1]: cytotoxicity in CEM-SS cells by uptake of TdR-^3H into total DNA. The following applies: human, TdR-^3H uptake into total DNA, read-out: IC50 cytotoxicity. Format: cell-based. The procedure: (§1) The cell cytotoxicity and the anti-HIV-1-activity in CEM-SS cells of selected lipid alcohols are stated in table 1.
(§2) The cytotoxicity was determined by uptake of TdR-^3 H into the total DNA at various concentrations of the stated compounds. The anti-HIV 1 activity was determined using a standard plaque assay of a CEM-SS cell monolayer. The differential selectivity results from the quotient of the IC50 and anti-HIV 1 activity concentrations. ND means not determined.

Another data set relates to HIV-1. Put plainly: anti-HIV-1 activity, standard plaque assay of a CEM-SS cell monolayer. Format: cell-based. The following applies: for IC50: read-out: IC50 anti-HIV-1; for Diff. selectivity: quotient of cytotoxicity IC50 and anti-HIV 1 IC50. The procedure:
as §1, §2

Setting [2] is: Human immunodeficiency virus 1, CEM-SS cell monolayer, plaque assay.

`CCCCCCCCCCCCS(=O)(=O)CC(CO)OCCCCCCCCCC` (stereo not shown) [3-dodecylsulfonyl-2-decyloxy-1-propanol]: the CC50 in data set [1] was 32.7 µM. Moreover, the IC50 (commonly the concentration that inhibits the measured activity by half) in the data set on HIV-1 (setting [2]) is 0.54 µM. The same molecule returned a Diff. selectivity in the data set with HIV-1 of 60.52.

Turning to `CCCCCCCCCCCCOC(CO)CSCCCCCCCCCCCC` (stereo not shown) [3-dodecylmercapto-2-dodecyloxy-1-propanol], the CC50 in data set [1] is above 100 µM. In the data set on HIV-1 (setting [2]), the IC50 was above 20 µM.

As to `CCCCCCCCCCCOC(CO)CSCCCCCCCCCCC` (stereo not shown) [3-undecylmercapto-2-undecyloxy-1-propanol], the CC50 in data set [1] was above 100 µM. In the data set with HIV-1 (setting [2]), the IC50 was 2.95 µM. Further, in the data set with HIV-1, the Diff. selectivity is above 33.90.

As for `CCCCCCCCCCCCSCC(CO)OCCCCCCCC` (stereo not shown) [3-dodecylmercapto-2-octyloxy-1-propanol], the CC50 in data set [1] was above 90.6 µM. Also, the IC50 in the data set with HIV-1 (setting [2]) was found to be 7.01 µM. This molecule also gave a Diff. selectivity in the data set on HIV-1 above 12.92.

On to `CCCCCCCCCCOC(CO)CSCC(C)CCCCCCCCC` (stereo not shown) [3-(2-methyl-undecyl)mercapto-2-decyloxy-1-propanol], for which the CC50 in data set [1] is above 100 µM. For the same molecule, the IC50 in the data set on HIV-1 (Human immunodeficiency virus 1, CEM-SS) was 51.2 µM. In addition, the Diff. selectivity with HIV-1 was above 1.95.

Turning to `CCCCCCCCCCCC[S+]([O-])CC(CO)OCCCCCCCCCC` (stereo not shown) [3-dodecylsulfinyl-2-decyloxy-1-propanol], the CC50 in data set [1] was found to be 36.8 µM. In addition, the IC50 in the data set with HIV-1 (setting [2]) was 0.18 µM. This molecule also returned a Diff. selectivity with HIV-1 of 204.22.

For the molecule `CCCCCCCCCCCCCCSCC(CO)OCCCCCCCCCC` (stereo not shown) [3-tetradecylmercapto-2-decyloxy-1-propanol], the CC50 in data set [1] was above 100 µM. In addition, the IC50 with HIV-1 (setting [2]) is above 20 µM.

These data come from patent US6177469A, “Lipid alcohols as new immunosuppressive and antiviral drugs” (priority 1995, dated 2001).
